Test results reported in US8168617B2, “Complex pantoic acid ester neopentyl sulfonyl ester cyclization release prodrugs of acamprosate, compositions thereof, and methods of use” (XenoPort, Inc., priority 2007, dated 2012).

What was measured:
[1] = rat, in vivo
Protocol: Rats were obtained commercially and were pre-cannulated in the jugular vein. Animals were conscious at the time of the experiment. All animals were fasted overnight and until 4 hours post-dosing of a prodrug of Formula (I).
Rat blood samples (0.3 mL/sample) were collected from all animals prior to dosing and at different time-points up to 24 h post-dose into tubes containing EDTA. Two aliquots (100 μL each) were quenched with 300 μL methanol and stored at −20° C. prior to analysis.
To prepare analysis standards, 90 μL of rat blood was quenched with 300 μL methanol followed by 10 μL of spiking standard and/or 20 μL of internal standard. The sample tubes were vortexed for at least 2 min and then centrifuged at 3400 rpm for 20 min. […]
LC-MS-MS analysis was performed using an API 4000 equipped with Agilent 1100 HPLC and a Leap Technologies autosampler. […] Acamprosate was monitored in negative ion mode. […] Prodrug was monitored in positive ion mode. […]
The percent relative bioavailability (F %) of acamprosate was determined by comparing the area under the acamprosate concentration vs time curve (AUC) following oral or colonic administration of an acamprosate prodrug or acamprosate with the AUC of the acamprosate concentration vs time curve following intravenous administration of acamprosate on a dose normalized basis.

[2] = system: cocaine conditioned mice; details: 100 mg/kg acamprosate for 3 days; cited from earlier work
[3] = post-dose; doses about 1-2 gm per day; cited from earlier work

Row | acamprosate colonic bioavailability relative to the acamprosate colonic bioavailability of an equivalent dose of acamprosate itself [1] | acamprosate oral bioavailability relative to the acamprosate oral bioavailability of an equivalent dose of acamprosate itself [1] | SMILES | relapse-like behavior [2] | time at which steady-state plasma concentration occurs [3] [h]
1 | at least 5 times | at least 5 times | CC(=O)NCCCS(=O)(=O)OCC(C)(C)[C@@H](O)C(=O)OC(C)OC(=O)OC(C)C (stereo partly drawn) [Compound 40, (Methylethoxycarbonyloxy)ethyl (2R)-4-{[3-(acetylamino)propyl]sulfonyloxy}-2-hydroxy-3,3-dimethylbutanoate] |  | 
2 |  |  | CC(=O)NCCCS(=O)(=O)O [acamprosate, 3-(Acetylamino)propylsulfonic acid] | attenuated relapse-like behavior | 3 to 8
